The values below come from patent publication US9850225B2, “Compounds useful as immunomodulators” (BRISTOL-MYERS SQUIBB COMPANY, priority 2014, dated 2017).

The structures appear in SMILES notation.

Chain of PD-1/PD-L1 interaction (PD-1-Ig / PD-L1-His) (Q9NZQ7 other isoform, or with tags, fused parts or gaps): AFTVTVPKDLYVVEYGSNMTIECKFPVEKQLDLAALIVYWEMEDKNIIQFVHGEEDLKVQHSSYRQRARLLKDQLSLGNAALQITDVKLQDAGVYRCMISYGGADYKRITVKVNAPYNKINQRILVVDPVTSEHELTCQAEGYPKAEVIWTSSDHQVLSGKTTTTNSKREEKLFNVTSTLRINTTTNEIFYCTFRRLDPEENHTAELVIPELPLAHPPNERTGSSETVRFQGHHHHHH

The target of one test is PD-1/PD-L1 interaction (PD-1-Ig / PD-L1-His) (Homo sapiens (Human), UniProt Q9NZQ7). Kind of test: PD-1/PD-L1 Homogenous Time-Resolved Fluorescence (HTRF) binding assay. To be noted: PD-1/PD-L1 HTRF binding assay; numeric value; read-out: Range or IC50. An excerpt:
The ability of the compounds of formula (I) to bind to PD-L1 was investigated using a PD-1/PD-L1 Homogenous Time-Resolved Fluorescence (HTRF) binding assay.
Homogenous Time-Resolved Fluorescence (HTRF) Binding Assay.
The interaction of PD-1 and PD-L1 can be assessed using soluble, purified preparations of the extracellular domains of the two proteins. The PD-1 and PD-L1 protein extracellular domains were expressed as fusion proteins with detection tags, for PD-1, the tag was the Fc portion of Immunoglobulin (PD-1-Ig) and for PD-L1 it was the 6 histidine motif (PD-L1-His). All binding studies were performed in an HTRF assay buffer consisting of dPBS supplemented with 0.1% […] bovine serum albumin and 0.05% (v/v) Tween-20. For the h/PD-L1-His binding assay, inhibitors were pre-incubated with PD-L1-His (10 nM final) for 15 m in 4 μl of assay buffer, followed by addition of PD-1-Ig (20 nM final) in 1 μl of assay buffer and further incubation for 15 m. HTRF detection was achieved using europium crypate-labeled anti-Ig (1 nM final) and allophycocyanin (APC) labeled anti-His (20 nM final). Antibodies were diluted in HTRF detection buffer and 5 μl was dispensed on top of the binding reaction. […] Additional binding assays were established between the human proteins PD-1-Ig/PD-L2-His (20 & 5 nM, respectively) and CD80-His/PD-L1-Ig (100 & 10 nM, respectively). […]
The IC50 is the midpoint of a concentration-inhibition curve. As for `CC(=O)NCCNCc1ccc(OCc2cccc(-c3ccccc3)c2C)cc1OCc1ccc(F)c(C)c1` [Example 1108, N-(2-((2-((4-fluoro-3-methylbenzyl)oxy)-4-((2-methyl-[1,1′-biphenyl]-3-yl)methoxy)benzyl)amino)ethyl)acetamide], the IC50 stood at 624 nM.

Regarding `CC(=O)NCCNCc1ccc(OCc2cccc(-c3ccccc3)c2C)cc1OCc1cc(C#N)ccc1F` [Example 1095, N-(2-((2-((5-cyano-2-fluorobenzyl)oxy)-4-((2-methyl-[1,1′-biphenyl]-3-yl)methoxy)benzyl)amino)ethyl)acetamide], the IC50 was determined as 81.2 nM.

The same test, now with this note: PD-1/PD-L1 HTRF binding assay; value given as range class; read-out: Range or IC50.
Consider `CC(=O)NCCNCc1ccc(OCc2cccc(-c3ccccc3)c2C)cc1OCc1cccc(Cl)c1` [Example 1054, N-(2-((2-((3-chlorobenzyl)oxy)-4-((2-methyl-[1,1′-biphenyl]-3-yl)methoxy)benzyl)amino)ethyl)acetamide], for which the concentration for half-maximal inhibition (IC50) is 100 to 20000 nM.

Consider `Cc1c(COc2ccc(CN[C@H](CO)C(=O)O)c(OCc3cccc(C#N)c3)c2Cl)cccc1-c1ccc2c(c1)OCCO2` [Example 1235, (R)-2-((3-chloro-2-((3-cyanobenzyl)oxy)-4-((3-(2,3-dihydrobenzo[b][1,4]dioxin-6-yl)-2-methylbenzyl)oxy)benzyl)amino)-3-hydroxypropanoic acid], for which the IC50 lay within 100 to 20000 nM.

With `Cc1cc(CN[C@](C)(CO)C(=O)O)c(OCc2cccc(C#N)c2)cc1OCc1cccc(-c2ccc3c(c2)OCCO3)c1C` [Example 1269, (R)-2-((2-((3-cyanobenzyl)oxy)-4-((3-(2,3-dihydrobenzo[b][1,4]dioxin-6-yl)-2-methylbenzyl)oxy)-5-methylbenzyl)amino)-3-hydroxy-2-methylpropanoic acid], the IC50 was 0.6 to 10 nM.

As to `Cc1cc(OCc2cccc(-c3ccc4c(c3)OCCO4)c2C)cc(OCc2cncc(C#N)c2)c1CN[C@](C)(CO)C(=O)O` [Example 1008, (R)-2-(2-((5-cyanopyridin-3-yl)methoxy)-4-(3-(2,3-dihydrobenzo[b][1,4]dioxin-6-yl)-2-methylbenzyloxy)-6-methylbenzylamino)-3-hydroxy-2-methylpropanoic acid], the IC50 lay in the range of 0.6 to 10 nM.

Regarding `C=Cc1cc(CNCCNC(C)=O)c(OCc2cccc(C#N)c2)cc1OCc1cccc(-c2ccc3c(c2)OCCO3)c1C` [Example 1292, N-(2-(2-(3-cyanobenzyloxy)-4-(3-(2,3-dihydrobenzo[b][1,4]dioxin-6-yl)-2-methylbenzyloxy)-5-vinylbenzylamino)ethyl)acetamide], the IC50 was 0.6 to 10 nM.

Consider `Cc1c(COc2cc(OCc3cccc(C#N)c3)c(CN3CCN(C)CC3C(=O)O)cc2Cl)cccc1-c1ccc2c(c1)OCCO2` (stereo not shown) [Example 1224, 1-(5-chloro-2-((3-cyanobenzyl)oxy)-4-((3-(2,3-dihydrobenzo[b][1,4]dioxin-6-yl)-2-methylbenzyl)oxy)benzyl)-4-methylpiperazine-2-carboxylic acid], for which the IC50 lay within 10 to 100 nM.

For `CC(=O)NCCNCc1ccc(OCc2cccc(-c3ccccc3)c2C)cc1OCCO` [Example 1030, N-(2-((2-(2-hydroxyethoxy)-4-((2-methyl-[1,1′-biphenyl]-3-yl)methoxy)benzyl)amino)ethyl)acetamide], the IC50 was in the range of 100 to 20000 nM.

As to `Cc1c(COc2cc(OCc3cccc(C#N)c3)c(CNC(Cc3c[nH]c4ccc(O)cc34)C(=O)O)cc2Cl)cccc1-c1ccc2c(c1)OCCO2` (stereo not shown) [Example 1167, 2-((5-chloro-2-((3-cyanobenzyl)oxy)-4-((3-(2,3-dihydrobenzo[b][1,4]dioxin-6-yl)-2-methylbenzyl)oxy)benzyl)amino)-3-(5-hydroxy-1H-indol-3-yl)propanoic acid], the IC50 was 10 to 100 nM.

As for `CSC[C@H](NCc1cc(Cl)c(OCc2cccc(-c3ccc4c(c3)OCCO4)c2C)cc1OCc1cccc(C#N)c1)C(=O)O` [Example 1160, (R)-2-((5-chloro-2-((3-cyanobenzyl)oxy)-4-((3-(2,3-dihydrobenzo[b][1,4]dioxin-6-yl)-2-methylbenzyl)oxy)benzyl)amino)-3-(methylthio)propanoic acid], the IC50 is 10 to 100 nM.

Regarding `CC(=O)NCCNCc1ccc(OCc2cccc(-c3ccccc3)c2C)cc1OCc1ccncn1` [Example 1100, N-(2-((4-((2-methyl-[1,1′-biphenyl]-3-yl)methoxy)-2-(pyrimidin-4-ylmethoxy)benzyl)amino)ethyl)acetamide], the IC50 lay within 100 to 20000 nM.

With `CC(=O)NCCNCc1ccc(OCc2cccc(-c3ccccc3)c2C)cc1OCc1ccccc1S(C)(=O)=O` [Example 1041, N-(2-((4-((2-methyl-[1,1′-biphenyl]-3-yl)methoxy)-2-((2-(methylsulfonyl)benzyl)oxy)benzyl)amino)ethyl)acetamide], the IC50 fell in the range of 100 to 20000 nM.

Take `Cc1c(COc2ccc(CNC(C)(CO)C(=O)O)c(OCc3cccc(C#N)c3)c2)cccc1-c1ccc2c(c1)OCCO2` (stereo not shown) [Example 1124, 2-((2-((3-cyanobenzyl)oxy)-4-((3-(2,3-dihydrobenzo[b][1,4]dioxin-6-yl)-2-methylbenzyl)oxy)benzyl)amino)-3-hydroxy-2-methylpropanoic acid]: the IC50 fell in the range of 0.6 to 10 nM.

On to `CC(=O)NCCNCc1ccc(OCc2cccc(-c3ccccc3)c2C)cc1OCc1cccc(F)c1` [Example 1050, N-(2-((2-((3-fluorobenzyl)oxy)-4-((2-methyl-[1,1′-biphenyl]-3-yl)methoxy)benzyl)amino)ethyl)acetamide], for which the IC50 was 100 to 20000 nM.

Take `CC(=O)NCCNCc1ccc(OCc2cccc(-c3ccccc3)c2C)cc1OCc1ccc(C#N)cc1` [Example 1029, N-(2-((2-((4-cyanobenzyl)oxy)-4-((2-methyl-[1,1′-biphenyl]-3-yl)methoxy)benzyl)amino)ethyl)acetamide]: the IC50 is 100 to 20000 nM.

For `Cc1cc(CN[C@@](C)(CO)C(=O)O)c(OCc2cncc(C#N)c2)cc1OCc1cccc(-c2ccc3c(c2)OCCO3)c1Cl` [Example 1154, (S)-2-(4-(2-chloro-3-(2,3-dihydrobenzo[b][1,4]dioxin-6-yl)benzyloxy)-2-((5-cyanopyridin-3-yl)methoxy)-5-methylbenzylamino)-3-hydroxy-2-methylpropanoic acid], the IC50 was in the range of 0.6 to 10 nM.

Regarding `COc1cc(OCc2cccc(-c3ccc4c(c3)OCCO4)c2C)cc(OCc2cccc(C#N)c2)c1CN[C@@H](CO)C(=O)O` [Example 1141, (S)-2-((2-((3-cyanobenzyl)oxy)-4-((3-(2,3-dihydrobenzo[b][1,4]dioxin-6-yl)-2-methylbenzyl)oxy)-6-methoxybenzyl)amino)-3-hydroxypropanoic acid], the IC50 fell in the range of 0.6 to 10 nM.

With `Cc1c(COc2ccc(CN[C@@H](C(=O)O)[C@H](C)O)c(OCc3cccc(C#N)c3)c2)cccc1-c1ccccc1` [Example 1015, (2R,3S)-2-((2-((3-cyanobenzyl)oxy)-4-((2-methyl-[1,1′-biphenyl]-3-yl)methoxy)benzyl)amino)-3-hydroxybutanoic acid], the IC50 is 0.6 to 10 nM.

Regarding `Cc1c(COc2ccc(CN[C@](C)(CO)C(=O)O)c(OCc3ccc(F)c(C#N)c3)c2)cccc1-c1ccccc1` [Example 1333, (R)-2-((2-((3-cyano-4-fluorobenzyl)oxy)-4-((2-methyl-[1,1′-biphenyl]-3-yl)methoxy)benzyl)amino)-3-hydroxy-2-methylpropanoic acid], the IC50 lay in the range of 0.6 to 10 nM.

In the case of `COc1cc(OCc2cccc(-c3ccccc3)c2C)cc(OCc2cccc(C#N)c2)c1CN[C@@H](C(=O)O)[C@@H](C)O` [Example 1138, (2R,3R)-2-((2-((3-cyanobenzyl)oxy)-6-methoxy-4-((2-methyl-[1,1′-biphenyl]-3-yl)methoxy)benzyl)amino)-3-hydroxybutanoic acid], the IC50 was in the range of 10 to 100 nM.

Regarding `Cc1c(COc2cc(OCc3cncc(C#N)c3)c(CN3CCCC[C@H]3C(=O)O)cc2Br)cccc1-c1ccccc1` [Example 1298, (S)-1-(5-bromo-2-((5-cyanopyridin-3-yl)methoxy)-4-((2-methylbiphenyl-3-yl)methoxy)benzyl)piperidine-2-carboxylic acid], the IC50 fell in the range of 0.6 to 10 nM.

For the compound `Cc1cc(CN2CCCC[C@H]2C(=O)O)c(OCc2cccc(C#N)c2)cc1OCc1cccc(-c2ccc3c(c2)OCCO3)c1C` [Example 1268, (S)-1-(2-((3-cyanobenzyl)oxy)-4-((3-(2,3-dihydrobenzo[b][1,4]dioxin-6-yl)-2-methylbenzyl)oxy)-5-methylbenzyl)piperidine-2-carboxylic acid], the IC50 lay within 0.6 to 10 nM.

Regarding `CC(=O)Nc1cc(COc2cc(OCc3cccc(-c4ccc5c(c4)OCCO5)c3C)c(Cl)cc2CN[C@@](C)(CO)C(=O)O)ccn1` [Example 3011, (S)-2-((2-((2-acetamidopyridin-4-yl)methoxy)-5-chloro-4-((3-(2,3-dihydrobenzo[b][1,4]dioxin-6-yl)-2-methylbenzyl)oxy)benzyl)amino)-3-hydroxy-2-methylpropanoic acid], the IC50 was 0.6 to 10 nM.

As for `CC(=O)NCCNCc1cc(C)c(OCc2cccc(-c3ccc4c(c3)OCCO4)c2C)cc1OCc1cncc(C#N)c1` [Example 1282, N-(2-(2-((5-cyanopyridin-3-yl)methoxy)-4-(3-(2,3-dihydrobenzo[b][1,4]dioxin-6-yl)-2-methylbenzyloxy)-5-methylbenzylamino)ethyl)acetamide], the IC50 lay in the range of 0.6 to 10 nM.
